Assay results reported in paper doi:10.1101/871186v1 (bioRxiv, 2019).

Tests used:
[1] = tested on: neurons (NeuN), astrocytes (GFAP), microglia (TMEM), lysosomes (LAMP1), early endosomes (EEA1); assay type: in vivo; details: mouse brain sections after IV Cy5-MTfp, 3D confocal
[2] = Tissue distribution of intact MTfp by LCMS; assay type: in vivo, mouse (CD1)
[3] = tested on: in vitro bovine BBB model (primary bovine brain capillary endothelial cells supported by primary rat glial cells); test: In vitro BBB model transcytosis assay of MTf fragments and peptides; assay type: in vitro ADME

DSSHAFTLDELR [MTfp]
MTFp found in the early endosomes ([1]; EEA1 marker): approximately 20% | MTFp found in the lysosomes ([1]; LAMP1 marker): 40% | initial rate of transport, kidney ([2]; from 30-minute concentration): 9.9 nM/min | initial rate of transport, liver ([2]; from 30-minute concentration): 7.3 nM/min | initial rate of transport into the brain ([2]; slope of time vs concentration, 0 and 30-minute time points, protocol of Bickel): ~2 nM/min | Abluminal vs. Total ([3]; T = 120, abluminal compared to initial concentration): 1.90% | Abluminal vs. Luminal ([3]; T = 120, measure of transcytosis efficiency): 2.41%
